Experiments:
[1] = tested on: recombinant single and cis mutant PI3Kα complexes; test: IC50 determination of recombinant PI3K (Transcreener ADP2 fluorescence intensity assay); settings: among the recombinant single and cis mutant PI3Kα complexes
[2] = tested on: PIK3CA mutant MCF10A cells; test: Cell viability / cell inhibition by PI3K inhibitors (CellTiter-Glo, dose-response survival); settings: for sensitivity of cell growth to PI3Kα inhibition: E545K and H1047R major hotspot mutants compared to minor mutants and WT
[3] = tested on: PI3K pathway signaling in PIK3CA mutant MCF10A cells; test: Western blotting of PI3K effectors, MCF10A cells; settings: BYL719 1 μM, 24 hours, serum starvation, vs single mutant cells
[4] = tested on: ER+ metastatic breast cancer; test: Phase 1 clinical trial NCT01870505 of alpelisib (BYL719) plus aromatase inhibitor, PFS analysis; format: in vivo, human; settings: with an aromatase inhibitor; for progression free survival: tumor NGS (FIG. 18C); for PFS (duration of response to PI3K inhibition): tumor and ctDNA NGS (FIG. 17E)
Procedure: Progression-free survival analysis was performed on patients enrolled in NCT01870505, a phase I clinical trial of BYL719 (alpelisib) plus letrozole or exemestane for patients (n=51) with hormone-receptor positive locally-advanced unresectable or metastatic breast cancer. 44/51 patients were analyzed for NGS of their tumors (MSK-IMPACT) and/or NGS of their ctDNA (Guardant) and were included in the analysis. Progression free survival was calculated and was compared between dual and single mutant patients. Clinical benefit rates (complete response, partial response or stable disease) were calculated and were compared between dual and single mutant patients using Fisher's exact test.
(§1) Retrospective PFS analysis was performed on tumors from a large breast cancer dataset (n=1918) sequenced by MSK-IMPACT ((Razavi et al., Cancer Cell 34, 427-438 e426 (2018)). Tumors were included in analysis if both pre- and post-endocrine therapy (aromatase inhibitor or fulvestrant) biopsies confirmed WT, single PIK3CA mutation, or multiple PIK3CA mutations. Kaplan-Meier curves were generated for PFS after firstline aromatase inhibitor or firstline fulvestrant therapy. PFS analysis was performed on patients enrolled in NCT01870505, a phase 1 clinical trial of alpelisib plus letrozole or exemestane for patients with hormone-receptor positive locally-advanced unresectable or metastatic breast cancer. 46/51 patients had biopsy samples that confirmed PIK3CA mutant or WT alleles by tumor NGS, and these 46 patients were included in the final analysis.

[5] = tested on: PI3K pathway signaling in PIK3CA mutant NIH-3T3 cells; test: Western blotting of PI3K effectors, NIH-3T3 cells; format: cell-based, mouse; settings: BYL719 1 μM, 24 hours, serum starvation, vs single mutant cells
[6] = tested on: PIK3CA mutant and WT breast cancers; test: Retrospective PFS analysis on endocrine therapy (aromatase inhibitor or fulvestrant); format: in vivo, human
Procedure: as §1

[7] = tested on: metastatic ER-positive PIK3CA mutant breast cancer; test: […] phase III clinical trial of taselisib with fulvestrant, ctDNA PIK3CA analysis; format: in vivo, human; settings: for overall response rate: taselisib arm (with fulvestrant)
Text: The present disclosure investigated the effects of multiple PIK3CA mutations on clinical response to PI3Kα inhibitors in metastatic breast cancer. The present disclosure analyzed response data from […], a phase III registrational clinical trial that tested the efficacy of the PI3Kα inhibitor taselisib (GDC-0032), with fulvestrant (an estrogen receptor [ER] degrader) in metastatic ER-positive PIK3CA mutant breast cancer. This is the largest randomized clinical study testing a PI3Kα inhibitor (631 patients).
Many patients with metastatic ER-positive breast cancer enrolled in this trial had bone metastases, which must be decalcified to be analyzed by NGS, which render DNA sequencing particularly challenging (Singh et al., Ann Diagn Pathol 17, 322-326 (2013)). Thus, the present disclosure used circulating tumor DNA (ctDNA), which has been utilized in many breast cancer clinical trials (Baselga et al., Lancet Oncol 18, 904-916 (2017); Andre et al., N Engl J Med 380, 1929-1940 (2019); Baselga et al., N Engl J Med 366, 520-529 (2012); Turner et al., N Engl J Med 373, 209-219 (2015)), to detect the presence of multiple mutations. Of the 631 patients on the trial, 598 had plasma samples available for analysis, of which 508 were adequate for testing (FIG. 19A). Samples were tested using the Foundation One liquid assay, which sequences the entire PIK3CA gene. Of the 339 patients with detected PIK3CA mutations, 66 (19%) had 2 or more PIK3CA mutations.
For analysis of the […] clinical trial (Baselga, Journal of Clinical Oncology, 2018, 36, no. 18_suppl.) patient ctDNA samples (n=631), 508 patient samples met quality control parameters and were analyzed by Foundation Medicine One Liquid assay (Clark et al., J Mol Diagn 20, 686-702 (2018)) which sequences […] of PIK3CA and can detect mutations at amino acid positions 545, 1047, 453, 726, and 1043 (FIG. 24). 339 samples were identified with PIK3CA mutations, of which 66 contained two or more PIK3CA mutations. Patients with measurable disease from the ctDNA PIK3CA mutant cohort, on the taselisib arm, were analyzed based on the percentage change in the sum of longest diameter (SLD) of target lesion from baseline, and were tabulated by waterfall plot. Patients with both measurable and nonmeasurable disease from the ctDNA PIK3CA mutant cohort were assessed on the placebo and taselisib arms for overall response rate (defined as tumor shrinkage >30%). 95% CI for rates were constructed using the Blyth-Still-Casella method. The CI for the difference in ORRs between the two treatment arms were determined using the normal approximation to the binomial distribution. Response rates in the treatment arms were compared (p-value) using the stratified Cochran-Mantel-Haenszel test.

[8] = target: p85α regulatory subunit of PI3Kα (PIK3R1), full length human, hexahistidine-tagged at the N-terminus (UniProt P27986)
Sequence of p85α regulatory subunit of PI3Kα (PIK3R1), full length human, hexahistidine-tagged at the N-terminus (P27986 whole entry, looked up, tested part not stated): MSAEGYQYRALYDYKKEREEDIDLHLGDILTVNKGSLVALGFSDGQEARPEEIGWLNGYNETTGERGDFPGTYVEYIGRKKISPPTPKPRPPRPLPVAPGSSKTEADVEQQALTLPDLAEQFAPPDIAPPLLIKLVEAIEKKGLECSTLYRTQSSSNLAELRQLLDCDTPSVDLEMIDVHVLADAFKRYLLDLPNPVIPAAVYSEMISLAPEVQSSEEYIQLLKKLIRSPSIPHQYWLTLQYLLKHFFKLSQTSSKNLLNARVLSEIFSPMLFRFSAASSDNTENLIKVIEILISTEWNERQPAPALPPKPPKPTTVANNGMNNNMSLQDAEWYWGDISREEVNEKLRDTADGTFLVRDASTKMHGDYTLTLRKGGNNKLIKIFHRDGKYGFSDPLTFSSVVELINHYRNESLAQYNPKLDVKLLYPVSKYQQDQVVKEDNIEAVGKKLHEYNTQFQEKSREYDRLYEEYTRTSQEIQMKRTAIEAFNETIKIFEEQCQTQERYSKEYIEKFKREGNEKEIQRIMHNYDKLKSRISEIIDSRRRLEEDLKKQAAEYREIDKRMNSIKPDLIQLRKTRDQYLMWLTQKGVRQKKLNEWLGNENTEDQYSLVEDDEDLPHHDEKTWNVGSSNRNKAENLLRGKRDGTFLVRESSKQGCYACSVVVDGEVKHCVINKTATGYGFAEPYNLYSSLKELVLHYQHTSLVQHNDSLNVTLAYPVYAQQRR

For `C[C@H](Nc1ccc2c(c1)OCCn1cc(N3C(=O)OC[C@H]3C(F)F)nc1-2)C(N)=O` [GDC-0077], the “IC50 values, recombinant PI3Kα complexes” value [1] was “similar”, the “sensitivity of cell growth to PI3Kα inhibition” value ([2]; MCF10A) was “more sensitive” and the IC50 ([2]; read-out: IC50 [GDC-0077] of MCF10A E545K cells, MCF10A E545K cells, per FIG. 6G) was 0.0625 µM.

With `Cc1nc(NC(=O)N2CCC[C@H]2C(N)=O)sc1-c1ccnc(C(C)(C)C(F)(F)F)c1` [alpelisib] the “IC50 values, recombinant PI3Kα complexes” value [1] was “similar”, the cell viability ([2]; Example 1, compound PIK3CA mutants vs single mutants) was “more significant decrease in cell viability” and the “sensitivity of mutations in trans” value ([2]; MCF10A E726K/H1047R in trans compared to cis mutants) was “less sensitive”. The “sensitivity of mutations in trans” value ([2]; MCF10A E726K/H1047R in trans compared to the single major mutant) was “no more sensitive”, the “sensitivity of cell growth to PI3Kα inhibition” value ([2]; MCF10A) was “more sensitive” and the “fold of inhibition of cell growth” value ([2]; MCF10A, E545K- and H1047R-containing compound mutants vs single mutants) was “increased fold of inhibition”. The “compound mutant PI3K pathway signaling on PI3K inhibition” value [3] was “decreases to similar levels”, the progression free survival ([4]; WT PIK3CA tumors) was 7.5 weeks and the progression free survival ([4]; double PIK3CA mutant tumors) was 48 weeks. The “PFS (duration of response to PI3K inhibition)” value ([4]; dual PIK3CA mutant patients) was 48 weeks, the “patients with clinical benefit rate >30 weeks” value ([4]; dual mutant tumors, p=0.044 vs single) was 67% and the “PFS (duration of response to PI3K inhibition)” value ([4]; single PIK3CA mutant patients) was 17 weeks. The progression free survival ([4]; single PIK3CA mutant tumors) was 20 weeks, the “patients with clinical benefit rate >30 weeks” value ([4]; single mutant tumors) was 23% and the “median PFS, double mutant vs single mutant or WT tumors” value ([4]; not statistically significant) was “longer median PFS”. For the same compound, the “compound mutant PI3K pathway signaling on PI3K inhibition” value [5] was “decreases to similar levels”.

`CO[C@H]1C[C@@H]2CC[C@@H](C)[C@@](O)(O2)C(=O)C(=O)N2CCCC[C@H]2C(=O)O[C@H]([C@H](C)C[C@@H]2CC[C@@H](OCCO)[C@H](OC)C2)CC(=O)[C@H](C)/C=C(\C)[C@@H](O)[C@@H](OC)C(=O)[C@H](C)C[C@H](C)/C=C/C=C/C=C/1C` [everolimus] was tested, and the “sensitivity to downstream PI3K pathway inhibitor” value ([2]; MCF10A, cis mutants compared to single mutants, serum starvation 4 days) was “more sensitive”.

In the case of `C[C@]12CC[C@@H]3c4ccc(O)cc4C[C@@H](CCCCCCCCC[S+]([O-])CCCC(F)(F)C(F)(F)F)[C@H]3[C@@H]1CC[C@@H]2O` (stereo partly drawn) [fulvestrant], the “PFS of dual mutant patients vs patients with WT tumors” value ([6]; fulvestrant) is reported as “worse PFS” and the “PFS of patients with dual PIK3CA-mutant tumors vs single mutant or WT tumors” value ([6]; fulvestrant alone) is reported as “do not have improved”.

Work on `Cc1nc(-c2cn3c(n2)-c2ccc(-c4cnn(C(C)(C)C(N)=O)c4)cc2OCC3)n(C(C)C)n1` [taselisib] yielded an overall response rate ([7]; ctDNA PIK3CA mutant total population) of 20.3%, an overall response rate ([7]; multiple ctDNA PIK3CA mutant subpopulation) of 30.2% and an overall response rate ([7]; single ctDNA PIK3CA mutant subpopulation) of 18.1%. The “tumor shrinkage, multiple vs single mutant tumors” value ([7]; taselisib arm, waterfall plot (FIG. 19B)) was “tumor shrinkage more”.

With “p110α E545K, untagged, full length human” the “thermal shift assay (soluble p110α by Western blot across a temperature gradient)” value [8] was “Among single mutants, E545K is the most thermally unstable”.
